Measured values taken from US5756491A, “Antiviral cobalt-organic compounds” (priority 1991, dated 1998).
In brackets after ≈: the same amount, converted by molar mass. Several values for one entry are separate records, joined by “and”; a condition that tells them apart may be missing. Identical values can stand only once.

Assays:
[1] = test system: HSV-1; test: HSV-1 cytopathic effect (CPE) inhibition assay; type: cell-based; conditions: Human alphaherpesvirus 1; HSV-1, CPE
Method: (§1) Low passage human foreskin fibroblast cells were seeded into 96 well tissue culture plates 24 hours prior to use at a cell concentration of 2.5×10^4 cells per ml in 0.1 ml (MEM) supplemented with 10% fetal bovine serum (FBS). The cells were then incubated for 24 hour at 37° C. in a CO2 incubator. After incubation, the medium was removed and 100 μl of MEM containing 2% FBS was added to all but the first row. In the first row, 125 μl of experimental drug was added in triplicate wells. Medium alone was added to both cell and virus control wells. The drug in the first row of wells was then diluted serially 1:5 throughout the remaining wells by transferring 25 μl using the Cetus Liquid Handling Machine. After dilution of drug, 100 μl of the appropriate virus concentration was added to each well, excluding cell control wells which received 100 μl of MEM. For HSV-1 and HSV-2 assays, the virus concentration utilized was 1000 PFU's per well. For CMV and VZV assays, the virus concentration added was 2500 PFU per well. The plates were then incubated at 37° C. in a CO2 incubator for three days for HSV-1 and HSV-2, 10 days for VZV, or 14 days for CMV. […] The plates were allowed to dry for 24 h and then read on a Skatron Plate Reader at 620 nm.
(§2) I. EC50 values were also determined for each of the viruses tested for known antiviral agents. […]

[2] = test system: HSV-1; test: HSV-1 plaque reduction assay; type: cell-based; conditions: Human alphaherpesvirus 1, read-out: EC50
Method: Two days prior to use, HFF cells are plated into six well plates and incubated at 37° C. with 5% CO2 and 90% humidity. On the date of assay, the drug is made up at twice the desired concentration in 2×MEM and then serially diluted 1:5 in 2×MEM using six concentrations of drug. The initial starting concentration is usually 200 μg/ml down to 0.06 μg/ml. The virus to be used is diluted in MEM containing 10% FBS to a desired concentration which will give 20-30 plaques per well. The media is then aspirated from the wells and 0.2 ml of virus is added to each well in duplicate with 0.2 ml of media being added to drug toxicity wells. The plates are then incubated for one hour with shaking every fifteen minutes. After the incubation period, an equal amount of 1% agarose was added to a equal volume of each drug dilution. This will give final drug concentrations beginning with 100 μg/ml and ending with 0.03 μg/ml and a final agarose overlay concentration of 0.5%. The drug agarose mixture is applied to each well in 2 ml volume and the plates then incubated for three days, after which the cells were stained with a 1.5% solution of neutral red. At the end of 4-6 hr incubation period, the stain is aspirated, and plaques counted using a stereomicroscope at 1×magnification.
(§3) The procedure for the liquid overlay plaque assay is similar to that using the agarose overlay. The procedure for adding the virus is the same as for the regular plaque assay. The drugs are made up in a concentration to be used in MEM with 2% FBS. The drugs are not made up at 2×concentration as in previous assays but are made up at the desired concentration. For HSV-1 and HSV-2 assays, an antibody preparation obtained from Baxter Health Care Corporation is diluted 1:500 and added to the media that the drug is diluted in. For CMV and VZV, no antibody in the overlay is utilized. For the CMV assay, additional medium without new drug is added on day six and allowed to incubate for a total of 11 days. For VZV, additional media is added on day five and incubated for a total of eight days. At the end of the incubation period for all of the assays, the medium is removed, the cells washed and then stained with 0.1% crystal violet solution for ten minutes. The cells are then rinsed several times to remove any excess crystal violet and plaques enumerated using a stereomicroscope.
(§4) I. EC50 values were also determined for each of the viruses tested for known antiviral agents. The comparison compound was ACV for all viruses except for HCMV aherein DHPG was the comparison compound. In Table 26, these comparison EC50 values are indicated with an asterisk. In Table 27, the drug FIAU (2'-fluoro-5-iodo-arabinosyl-uracil) was used as a control.

[3] = test system: HSV-2; test: HSV-2 cytopathic effect (CPE) inhibition assay; type: cell-based; conditions: Human alphaherpesvirus 2; HSV-2, CPE
Method: as §1, §2

[4] = VZV plaque reduction assay; type: cell-based; conditions: Human alphaherpesvirus 3, V2V
Method: The procedure is essentially the same as for the HSV plaque assay described above with two exceptions:
1. After addition of the drug, the plates are incubated for ten days.
2. On days three and six an additional 1 ml overlay with equal amounts of 2×MEM and 1% agarose are added.
as §3, with “The cells are then rinsed several times to remove any excess crystal violet and plaques enumerated using a stereomicroscope.” left out
as §2

[5] = test system: EBV; test: EBV IMN assay; type: cell-based; conditions: human gammaherpesvirus 4, EBV
Method: as §4

[6] = test system: HFF cells; test: Neutral red uptake toxicity; type: cell-based, human; conditions: stationary cells
[7] = test system: HFF cells; test: MTT assay for cell cytotoxicity; type: cell-based, human; conditions: stationary cells
Method: Twenty-four hours prior to assay, HFF cells are plated into 96 well plates at a concentration of […] cells per well. After 24 h, the media is aspirated and […] of drug is added to the first row of wells and then diluted serially 1:5 using the automated Cetus Liquid Handling System in a manner similar to that used in the CPE assay. The plates are then incubated in a CO2 incubator at 37° C. for seven days. At this time, each well receives 50 microliters of […] solution of MTT in Dulbecco's Phosphate Buffered Saline. The plates are then incubated for an additional four hours. At this time, the media is removed and replaced with 100 μl of 0.04N hydrochloric acid in isopropanol. After shaking briefly, the plates are then read on a plate reader at 550 nm.

[8] = test system: HFF cells; test: Cell proliferation assay; type: cell-based, human; conditions: rapidly growing cells
Method: Twenty-four hours prior to assay, HFF cells are seeded in 6-well plates at a concentration of 2.5×10^4 cells per well in MEM containing 10% FBS. On the day of the assay, drugs are diluted serially in MEM containing 10% FBS at increments of 1:5 covering a range from 100 μg/ml to 0.03 μg/ml. […] The media from the wells is then aspirated and 2 ml of each drug concentration is then added to each well. The cells are then incubated in a Co2 incubator at 37° C. for 72 h. At the end of this time, the media-drug solution is removed and the cells washed. […] The cell-media mixture is then pipetted up and down vigorously to break up the cell suspension and 0.2 ml of the mixture is added to 9.8 ml of Isoton III and counted using a Coulter Counter. Each sample is counted three times with three replicate wells per sample.

[9] = test system: human foreskin fibroblast (HFF) cell monolayers; test: Toxicity effects controls: sham-inoculated compound-treated HFF monolayers; type: cell-based; conditions: Experiment 1 (Table 1); note: key: +: toxic; -: no toxicity; ±: mild toxicity; T: toxicity effects interfered with CPE rating
Excerpt: (§5) With sufficient stirring, all the compounds completely dissolved.
In the tables, the symbols have the meaning indicated: […]

[10] = test system: HSV-1 McKrae Strain; test: Direct virucidal efficacy against HSV-1 on HFF monolayers; type: cell-based; conditions: for virucidal efficacy (HSV-1 titer): Experiment 1 (Table 2), 24 h PI; for effective virucidal concentration IC50 / effective virucidal concentration IC90: HSV-1
Method: HSV-1 McKrae Strain was diluted to a final concentration of 10^5 PFU/ml in minimal essential medium (MEM). Hereinafter, this dilution is referred to as the HSV-1 Suspension for convenience.
as §5
Each of the drug solutions were mixed with the HSV-1 Suspension in a 1:1 ratio. The drug and HSV-1 Suspension mixture was incubated at 37° C. for thirty minutes with agitation every ten minutes. After the incubation, fifty microliter aliquots were overlaid onto triplicate confluent human foreskin fibroblast (HFF) cell monolayers. The inoculum was absorbed for thirty minutes and then a medium containing the appropriate drug concentration in MEM was added to the monolayers to a final volume of 0.5 milliliters per culture-well. The monolayers were incubated at 37° C. The developing HSV-1 Cytopathology was monitored daily for two days by inverted light microscopy. Titers were calculated by multiple regression analysis. All data is presented as the average PFU/ml reduction at 24 and/or 48 hours after inoculation (PI).
1. HSV-1 inoculated, non-compound treated HFF monolayers were included as "positive controls"; and […]

[11] = test system: HSV-2 (MS strain); test: Vaginal virus replication in primary genital HSV-2 infection of guinea pigs; type: in vivo, Female Hartley strain guinea pigs
Method: (§6) A series of studies were carried out to compare the activity of inventive antiviral Compounds 23, 76, and 82 in a primary genital HSV-2 infection of guinea pigs. The experiments were placebo-controlled and uninfected animals were treated with three concentrations of each of the preparations to assess skin irritation and determine the maximum tolerated dose.
(§7) The MS strain of HSV-2 was utilized for the experimental animal infection. Female Hartley strain guinea pigs (Charles River Breeding Laboratories, Kingston, N.Y.) weighing 250-300 g were inoculated intravaginally with 1.4×10^5 plaque forming units of HSV-2 one hour after being swabbed for the removal of vaginal secretions.
(§8) Groups of 10 infected guinea pigs were treated topically as stated above with 20 mg/ml (the maximum tolerated dose) of each compound beginning 6 h or 24 h after inoculation with HSV-2.
To determine the effect of treatment on vaginal virus replication, swabs of vaginal secretions were obtained on days 1, 3, 5, 7, and 10 after HSV-2 inoculation, placed in a tube containing 2.0 ml of media, vortexed and frozen at -70° until titrated for HSV-2. When all samples were collected, they were thawed, diluted serially and HSV-2 titers were determined using rabbit kidney cells in a microtiter CPE assay. Mean peak virus titers and areas under the virus titer-day curves were calculated and analyzed.
(§9) The number of animals infected over the number inoculated, lesion score-day areas and virus titer-day areas under the curve, peak lesion scores and peak virus titers between untreated and placebo-treated or placebo-treatedand drug-treated animals were compared using the Mann-Whitney U rank sum test. A p-value of 0.05 or less was considered significant.

[12] = test system: HSV-2 (MS strain); test: External genital lesion development in primary genital HSV-2 infection of guinea pigs; type: in vivo, Female Hartley strain guinea pigs; set-up: key to Lesion Score-Day Area Under Curve: area under 0-5+ lesion score vs day curve (score-days); key to Mean Peak Lesion Score: lesion severity on 0-5+ scale
Method: as §6, §7, §8
To determine the effect of therapy on the development and spread of external genital lesions, lesion severity was scored on a 0-5+ scale through the primary infection (21 days). Mean peak lesion scores and the areas under the lesion score-day curves were calculated and analyzed.
as §9

[13] = test system: HCMV; test: HCMV plaque assay; type: cell-based; conditions: Human betaherpesvirus 5, HCMV
Method: The procedure is essentially the same as for HSV analysis with the following minor changes. The agarose used for the initial overlay and the two subsequent overlays is 0.8% rather than 1%. The assay is incubated for 14 days with the additional 1 ml overlays being applied on days four and eight.
as §3, with “The cells are then rinsed several times to remove any excess crystal violet and plaques enumerated using a stereomicroscope.” left out
as §2

Nc1nc2c(ncn2COCCO)c(=O)[nH]1 [ACV]
EC50 [1]: 0.2 µg/mL (≈ 0.888 µM) | EC50 [2]: 0.2 µg/mL (≈ 0.888 µM) | EC50 [3]: 0.7 µg/mL (≈ 3.11 µM) | EC50 [4]: 3.2 µg/mL (≈ 14.2 µM) | EC50 [5]: 5.8 µg/mL (≈ 25.8 µM)

CC1=[N+]2CC[N+]3=C(C)C=C(c4ccccc4)[O][Co-3]23([NH3+])([NH3+])[O]C(c2ccccc2)=C1.[Cl-] [Compound 64]
toxicity IC50, neutral red uptake [6]: 15.2 MCG/ML | toxicity IC50, MTT toxicity [7]: 53 MCG/ML | toxicity IC50, cell proliferation [8]: 38 MCG/ML

CC1=C(Cl)C(C)=[N+]2CC[N+]3=C(C)C(Cl)=C(C)[O][Co-3]23([NH3+])([NH3+])[O]1.[Cl-] [Compound 67]
toxicity IC50, neutral red uptake [6]: 12.1 MCG/ML | toxicity IC50, MTT toxicity [7]: 42.0 MCG/ML | toxicity IC50, cell proliferation [8]: 12.0 MCG/ML

CC([O-])=CC(C)=NCCN=C(C)C=C(C)[O-].[Br-].[Co+3].c1ccncc1.c1ccncc1 [Compound 76]
toxicity effects ([9]; 24 h PI, 0.001 mg/ml): - | toxicity effects ([9]; 24 h PI, 0.01 mg/ml): - | toxicity effects ([9]; 24 h PI, 0.1 mg/ml): - | toxicity effects ([9]; 48 h PI, 0.001 mg/ml): - | toxicity effects ([9]; 48 h PI, 0.01 mg/ml): - | toxicity effects ([9]; 48 h PI, 0.1 mg/ml): - | toxicity effects ([9]; 48 h PI, 1 mg/ml): + | toxicity effects ([9]; 48 h PI, 10 mg/ml): + | virucidal efficacy (HSV-1 titer) ([10]; 0.001 mg/ml): 10^5 PFU/ml | virucidal efficacy (HSV-1 titer) ([10]; .01 mg/ml): 10^3 PFU/ml | effective virucidal concentration IC50 ([10]; Experiment 1 (Table 3)): 10 µg/mL | effective virucidal concentration IC90 ([10]; Experiment 1 (Table 3)): 100 to 1000 µg/mL | effective virucidal concentration IC50 ([10]; Experiment 2 (Table 6)): 10 µg/mL | effective virucidal concentration IC90 ([10]; Experiment 2 (Table 6)): 100 to 1000 µg/mL | # Infected/# Inoculated ([11]; 20 mg/ml, started +6h): 5/10 | Mean Peak Virus Titer ([11]; 20 mg/ml, started +6h): 1.0 | P-Value for Mean Peak Virus Titer ([11]; 20 mg/ml, started +6h): < 0.001 | Virus Titer-Day Area Under Curve ([11]; 20 mg/ml, started +6h): 2.9 | # Infected/# Inoculated ([11]; 20 mg/ml, started +24h): 10/10 | Mean Peak Virus Titer ([11]; 20 mg/ml, started +24h): 4.3 | Virus Titer-Day Area Under Curve ([11]; 20 mg/ml, started +24h): 17.7 | infectivity rate ([11]; treatment beginning 6 h after infection): 50% | Lesion Score-Day Area Under Curve ([12]; 20 mg/ml, started +6h): 4.4 | Mean Peak Lesion Score ([12]; 20 mg/ml, started +6h): 0.4 | P-Value for Mean Peak Lesion Score ([12]; 20 mg/ml, started +6h): < 0.001 | Lesion Score-Day Area Under Curve ([12]; 20 mg/ml, started +24h): 37.2 | Mean Peak Lesion Score ([12]; 20 mg/ml, started +24h): 3.3 | lesion AUC difference vs untreated control animals ([12]; started +24 h, vs untreated control): not significant

Nc1nc2c(ncn2COC(CO)CO)c(=O)[nH]1 [DHPG]
EC50 [13]: 0.9 µg/mL (≈ 3.53 µM)

O=c1[nH]c(=O)n([C@@H]2O[C@H](CO)[C@@H](O)[C@@H]2F)cc1I [FIAU, 2'-fluoro-5-iodo-arabinosyl-uracil]
toxicity IC50, cell proliferation [8]: 8.4 MCG/ML and 3.3 MCG/ML
